Assay results published in US6806230B1, “Pyrimidine derivatives and herbicides containing them” (Kumiai Chemical Industry Co., Ltd., priority 1999, dated 2004).

test system: barnyard grass (Eo); assay: Test Example 1: herbicidal effects by flooded paddy field treatment; type: in vivo; parameters: herbicidal effects, Eo (barnyard grass):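 0-5 growth inhibition grade; 5 = over 90%; 4 = 70-90%; 3 = 50-70%; 2 = 30-50%; 1 = 10-30%; 0 = under 10%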; settings: dose 100 g active ingredient per 10 ares, examined on the 21st day after treatment, standards of Table 44;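 on Herbicidal effect index, Eo: 0-5 growth inhibition grade; 5 = over 90%; 4 = 70-90%; 3 = 50-70%; 2 = 30-50%; 1 = 10-30%; 0 = under 10%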
Procedure: (§1) In a 100 cm^2 plastic pot, paddy field soil was filled and paddled. Then, seeds of barnyard grass (Eo) and monochoria (Mo) were sown, and water was introduced to a depth of 3 cm. Next day, a wettable powder prepared in accordance with Formulation Example 1 was diluted with water and dropwise applied to the water surface. The dose was 100 g of the active ingredient per 10 ares. Thereafter, cultivation was carried out in a green house, and on the 21st day after the treatment, the herbicidal effects were examined in accordance with the standards as identified in Table 44.

Compound | herbicidal effects, Eo (barnyard grass)
CC(C)C(c1cncnc1C(F)(F)F)N(C)C(=O)COc1nc2ccccc2s1 (racemic) [2-48] | 5
C#CCN(C(=O)Cc1ccc(Cl)cc1F)C(c1cncnc1C(F)(F)F)C(C)C (racemic) [1-615] | 5
COc1ccc(C(c2cncnc2C(F)(F)F)N(C)C(=O)Cc2ccc(C)cc2)cc1 (racemic) [1-487] | 5
CN(C(=O)Cc1ccc(Cl)s1)C(c1cncnc1C(F)(F)F)C(C)(C)C (racemic) [2-42] | 5
CC(C)C(c1cncnc1-c1ccccc1)N(C)C(=O)Cc1ccc(Cl)cc1 (racemic) [1-324] | 5
CC(c1cncnc1C(C)(C)C)N(C)C(=O)Cc1ccc(F)cc1 (racemic) [1-189] | 5
CC(C)C(c1cncnc1C(F)(F)F)N(C)C(=O)COc1ccccc1Cl (racemic) [Compound 1-132] | 5
COC(=O)c1ncncc1C(C(C)C)N(C)C(=O)C(C)c1ccc(Cl)cc1 (single isomer, unassigned) [1-593] | 5

same assay, conditions: dose 100 gai/10a, examined on 21st day after treatment, index 0-5 per Table 44

Compound | Herbicidal effect index, Eo
CC(C)C(c1cncnc1C(F)(F)F)N(C)C(=O)Cc1ccc(C(C)(C)C)cc1 (racemic) [Compound 1-43] | 5
CSc1ccc(CC(=O)N(C)C(c2cncnc2C(F)(F)F)C(C)C)cc1 (racemic) [Compound 1-44] | 5
Cc1ccc(CC(=O)N(C2CC2)C(c2cncnc2C(F)(F)F)C(C)C)cc1 (racemic) [Compound 1-82] | 5
COc1ccc(SC(=O)N(C)C(c2cncnc2C(F)(F)Cl)C(C)C)cc1 (racemic) [Compound 1-18] | 5
O=C(Cc1ccc(C(F)(F)F)cc1)NC(c1cncnc1C(F)(F)Cl)C1CC1 (racemic) [Compound 1-4] | 5
CC(C)C(c1cncnc1C(F)(F)F)N(C)C(=O)Cc1cccc(C(F)(F)F)c1 (racemic) [Compound 1-39] | 5

test system: monochoria (Mo); assay: Test Example 4: selectivity for a crop plant by flooded paddy field treatment; type: in vivo; parameters: scale not given here; settings: dose 25 g active ingredient per 10 ares, examined on the 21st day after treatment
Procedure: as §1, with “pot, a” for “pot,”, “sown, and rice (Or) of second leaf stage was transplanted,” for “sown,”, “was 25” for “was 100”, “standards of” for “standards as identified in”

Compound | Mo (herbicidal effects, index)
CC(C)C(c1cncnc1C(F)(F)F)N(C)C(=O)Cc1ccc(C(C)(C)C)cc1 (racemic) [Compound 1-43] | 5
CSc1ccc(CC(=O)N(C)C(c2cncnc2C(F)(F)F)C(C)C)cc1 (racemic) [Compound 1-44] | 5
Cc1ccc(CC(=O)N(C2CC2)C(c2cncnc2C(F)(F)F)C(C)C)cc1 (racemic) [Compound 1-82] | 5
COc1ccc(SC(=O)N(C)C(c2cncnc2C(F)(F)Cl)C(C)C)cc1 (racemic) [Compound 1-18] | 4
O=C(Cc1ccc(C(F)(F)F)cc1)NC(c1cncnc1C(F)(F)Cl)C1CC1 (racemic) [Compound 1-4] | 4
CC(C)C(c1cncnc1C(F)(F)F)N(C)C(=O)Cc1cccc(C(F)(F)F)c1 (racemic) [Compound 1-39] | 5

same assay, conditions: monochoria, dose 25 gai/10a, 21st day after treatment, index per Table 44

Compound | Mo (herbicidal effect index)
CC(C)C(c1cncnc1C(F)(F)F)N(C)C(=O)COc1nc2ccccc2s1 (racemic) [2-48] | 5
C#CCN(C(=O)Cc1ccc(Cl)cc1F)C(c1cncnc1C(F)(F)F)C(C)C (racemic) [1-615] | 5
COc1ccc(C(c2cncnc2C(F)(F)F)N(C)C(=O)Cc2ccc(C)cc2)cc1 (racemic) [1-487] | 5
CN(C(=O)Cc1ccc(Cl)s1)C(c1cncnc1C(F)(F)F)C(C)(C)C (racemic) [2-42] | 5
CC(C)C(c1cncnc1-c1ccccc1)N(C)C(=O)Cc1ccc(Cl)cc1 (racemic) [1-324] | 5
CC(c1cncnc1C(C)(C)C)N(C)C(=O)Cc1ccc(F)cc1 (racemic) [1-189] | 5
CC(C)C(c1cncnc1C(F)(F)F)N(C)C(=O)COc1ccccc1Cl (racemic) [Compound 1-132] | 5
COC(=O)c1ncncc1C(C(C)C)N(C)C(=O)C(C)c1ccc(Cl)cc1 (single isomer, unassigned) [1-593] | 4

test system: barnyard grass (Eo); assay: as above; type: in vivo; parameters: scale not given here; settings: barnyard grass, dose 25 gai/10a, 21st day after treatment, index per Table 44
Procedure: as §1, with “pot, a” for “pot,”, “sown, and rice (Or) of second leaf stage was transplanted,” for “sown,”, “was 25” for “was 100”, “standards of” for “standards as identified in”

Compound | Eo (herbicidal effect index)
CC(C)C(c1cncnc1C(F)(F)F)N(C)C(=O)COc1nc2ccccc2s1 (racemic) [2-48] | 5
C#CCN(C(=O)Cc1ccc(Cl)cc1F)C(c1cncnc1C(F)(F)F)C(C)C (racemic) [1-615] | 5
COc1ccc(C(c2cncnc2C(F)(F)F)N(C)C(=O)Cc2ccc(C)cc2)cc1 (racemic) [1-487] | 5
CN(C(=O)Cc1ccc(Cl)s1)C(c1cncnc1C(F)(F)F)C(C)(C)C (racemic) [2-42] | 5
CC(C)C(c1cncnc1-c1ccccc1)N(C)C(=O)Cc1ccc(Cl)cc1 (racemic) [1-324] | 5
CC(c1cncnc1C(C)(C)C)N(C)C(=O)Cc1ccc(F)cc1 (racemic) [1-189] | 5
CC(C)C(c1cncnc1C(F)(F)F)N(C)C(=O)COc1ccccc1Cl (racemic) [Compound 1-132] | 5
COC(=O)c1ncncc1C(C(C)C)N(C)C(=O)C(C)c1ccc(Cl)cc1 (single isomer, unassigned) [1-593] | 5

same assay, conditions: dose 25 g active ingredient per 10 ares, examined on the 21st day after treatment

Compound | Eo (herbicidal effects, index)
CC(C)C(c1cncnc1C(F)(F)F)N(C)C(=O)Cc1ccc(C(C)(C)C)cc1 (racemic) [Compound 1-43] | 5
CSc1ccc(CC(=O)N(C)C(c2cncnc2C(F)(F)F)C(C)C)cc1 (racemic) [Compound 1-44] | 5
Cc1ccc(CC(=O)N(C2CC2)C(c2cncnc2C(F)(F)F)C(C)C)cc1 (racemic) [Compound 1-82] | 5
COc1ccc(SC(=O)N(C)C(c2cncnc2C(F)(F)Cl)C(C)C)cc1 (racemic) [Compound 1-18] | 5
O=C(Cc1ccc(C(F)(F)F)cc1)NC(c1cncnc1C(F)(F)Cl)C1CC1 (racemic) [Compound 1-4] | 5
CC(C)C(c1cncnc1C(F)(F)F)N(C)C(=O)Cc1cccc(C(F)(F)F)c1 (racemic) [Compound 1-39] | 5

test system: rice (Or); assay: as above; type: in vivo; parameters: scale not given here; settings: rice transplanted at second leaf stage, dose 25 g active ingredient per 10 ares, examined on the 21st day after treatment
Procedure: as §1, with “pot, a” for “pot,”, “sown, and rice (Or) of second leaf stage was transplanted,” for “sown,”, “was 25” for “was 100”, “standards of” for “standards as identified in”

Or (effect on crop plant rice, index) | Compound
1 | CC(C)C(c1cncnc1C(F)(F)F)N(C)C(=O)Cc1ccc(C(C)(C)C)cc1 (racemic) [Compound 1-43]
0 | CSc1ccc(CC(=O)N(C)C(c2cncnc2C(F)(F)F)C(C)C)cc1 (racemic) [Compound 1-44]
0 | Cc1ccc(CC(=O)N(C2CC2)C(c2cncnc2C(F)(F)F)C(C)C)cc1 (racemic) [Compound 1-82]
1 | COc1ccc(SC(=O)N(C)C(c2cncnc2C(F)(F)Cl)C(C)C)cc1 (racemic) [Compound 1-18]
1 | O=C(Cc1ccc(C(F)(F)F)cc1)NC(c1cncnc1C(F)(F)Cl)C1CC1 (racemic) [Compound 1-4]
0 | CC(C)C(c1cncnc1C(F)(F)F)N(C)C(=O)Cc1cccc(C(F)(F)F)c1 (racemic) [Compound 1-39]

same assay, conditions: rice transplanted at second leaf stage, dose 25 gai/10a, 21st day after treatment, index per Table 44

Compound | Or (herbicidal effect index on crop)
CC(C)C(c1cncnc1C(F)(F)F)N(C)C(=O)COc1nc2ccccc2s1 (racemic) [2-48] | 1
C#CCN(C(=O)Cc1ccc(Cl)cc1F)C(c1cncnc1C(F)(F)F)C(C)C (racemic) [1-615] | 1
COc1ccc(C(c2cncnc2C(F)(F)F)N(C)C(=O)Cc2ccc(C)cc2)cc1 (racemic) [1-487] | 1
CN(C(=O)Cc1ccc(Cl)s1)C(c1cncnc1C(F)(F)F)C(C)(C)C (racemic) [2-42] | 0
CC(C)C(c1cncnc1-c1ccccc1)N(C)C(=O)Cc1ccc(Cl)cc1 (racemic) [1-324] | 1
CC(c1cncnc1C(C)(C)C)N(C)C(=O)Cc1ccc(F)cc1 (racemic) [1-189] | 0
CC(C)C(c1cncnc1C(F)(F)F)N(C)C(=O)COc1ccccc1Cl (racemic) [Compound 1-132] | 0
COC(=O)c1ncncc1C(C(C)C)N(C)C(=O)C(C)c1ccc(Cl)cc1 (single isomer, unassigned) [1-593] | 0

test system: monochoria (Mo); assay: Test Example 1: herbicidal effects by flooded paddy field treatment; type: in vivo; parameters: herbicidal effects, Mo (monochoria):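 0-5 growth inhibition grade; 5 = over 90%; 4 = 70-90%; 3 = 50-70%; 2 = 30-50%; 1 = 10-30%; 0 = under 10%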; settings: dose 100 g active ingredient per 10 ares, examined on the 21st day after treatment, standards of Table 44;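 on Herbicidal effect index, Mo: 0-5 growth inhibition grade; 5 = over 90%; 4 = 70-90%; 3 = 50-70%; 2 = 30-50%; 1 = 10-30%; 0 = under 10%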
Procedure: as §1

Compound | herbicidal effects, Mo (monochoria)
CC(C)C(c1cncnc1C(F)(F)F)N(C)C(=O)COc1nc2ccccc2s1 (racemic) [2-48] | 5
C#CCN(C(=O)Cc1ccc(Cl)cc1F)C(c1cncnc1C(F)(F)F)C(C)C (racemic) [1-615] | 5
COc1ccc(C(c2cncnc2C(F)(F)F)N(C)C(=O)Cc2ccc(C)cc2)cc1 (racemic) [1-487] | 5
CN(C(=O)Cc1ccc(Cl)s1)C(c1cncnc1C(F)(F)F)C(C)(C)C (racemic) [2-42] | 5
CC(C)C(c1cncnc1-c1ccccc1)N(C)C(=O)Cc1ccc(Cl)cc1 (racemic) [1-324] | 5
CC(c1cncnc1C(C)(C)C)N(C)C(=O)Cc1ccc(F)cc1 (racemic) [1-189] | 5
CC(C)C(c1cncnc1C(F)(F)F)N(C)C(=O)COc1ccccc1Cl (racemic) [Compound 1-132] | 5
COC(=O)c1ncncc1C(C(C)C)N(C)C(=O)C(C)c1ccc(Cl)cc1 (single isomer, unassigned) [1-593] | 5

same assay, conditions: dose 100 gai/10a, examined on 21st day after treatment, index 0-5 per Table 44

Compound | Herbicidal effect index, Mo
CC(C)C(c1cncnc1C(F)(F)F)N(C)C(=O)Cc1ccc(C(C)(C)C)cc1 (racemic) [Compound 1-43] | 5
CSc1ccc(CC(=O)N(C)C(c2cncnc2C(F)(F)F)C(C)C)cc1 (racemic) [Compound 1-44] | 5
Cc1ccc(CC(=O)N(C2CC2)C(c2cncnc2C(F)(F)F)C(C)C)cc1 (racemic) [Compound 1-82] | 5
COc1ccc(SC(=O)N(C)C(c2cncnc2C(F)(F)Cl)C(C)C)cc1 (racemic) [Compound 1-18] | 5
O=C(Cc1ccc(C(F)(F)F)cc1)NC(c1cncnc1C(F)(F)Cl)C1CC1 (racemic) [Compound 1-4] | 5
CC(C)C(c1cncnc1C(F)(F)F)N(C)C(=O)Cc1cccc(C(F)(F)F)c1 (racemic) [Compound 1-39] | 5
